Reference: patent US12539292B2, “BRM targeting compounds and associated methods of use” (Arvinas Operations, Inc., priority 2018, dated 2026)
Read-outs that look alike come from different tables or passages of the source.

Molecular target: T1, BRM (Homo sapiens, UniProt P51531)
T1 construct: In-Cell Western Screen of BRM Degradation in SW1573 Cells; endogenous in cells; host or cells: SW1573
Assay: In-cell Western screen of BRM degradation in SW1573 cells (Dmax and DC50)
Type: cell-based
Method in brief: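 Adherent SW1573 cultures exposed to test compounds for 18-20 h were processed for in-cell Western after PFA fixation and detergent permeabilization. BRM degradation was reported as Dmax and DC50.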

[1] = BRM degradation, SW1573 cells, Table 2D, read-out: *DC50
[2] = SW1573, % degraded, when tested at the top concentration of between 0.3 and 10 μM, read-out: BRM Dmax (%)
[3] = target protein degradation, read-out: BRM DC50
[4] = BRM degradation, SW1573 cells, read-out: DC50
[5] = BRM degradation, SW1573 cells, read-out: Dmax (% degraded)
[6] = degradation of BRM, read-out: BRM DC50

T1 sequence (P51531 whole entry): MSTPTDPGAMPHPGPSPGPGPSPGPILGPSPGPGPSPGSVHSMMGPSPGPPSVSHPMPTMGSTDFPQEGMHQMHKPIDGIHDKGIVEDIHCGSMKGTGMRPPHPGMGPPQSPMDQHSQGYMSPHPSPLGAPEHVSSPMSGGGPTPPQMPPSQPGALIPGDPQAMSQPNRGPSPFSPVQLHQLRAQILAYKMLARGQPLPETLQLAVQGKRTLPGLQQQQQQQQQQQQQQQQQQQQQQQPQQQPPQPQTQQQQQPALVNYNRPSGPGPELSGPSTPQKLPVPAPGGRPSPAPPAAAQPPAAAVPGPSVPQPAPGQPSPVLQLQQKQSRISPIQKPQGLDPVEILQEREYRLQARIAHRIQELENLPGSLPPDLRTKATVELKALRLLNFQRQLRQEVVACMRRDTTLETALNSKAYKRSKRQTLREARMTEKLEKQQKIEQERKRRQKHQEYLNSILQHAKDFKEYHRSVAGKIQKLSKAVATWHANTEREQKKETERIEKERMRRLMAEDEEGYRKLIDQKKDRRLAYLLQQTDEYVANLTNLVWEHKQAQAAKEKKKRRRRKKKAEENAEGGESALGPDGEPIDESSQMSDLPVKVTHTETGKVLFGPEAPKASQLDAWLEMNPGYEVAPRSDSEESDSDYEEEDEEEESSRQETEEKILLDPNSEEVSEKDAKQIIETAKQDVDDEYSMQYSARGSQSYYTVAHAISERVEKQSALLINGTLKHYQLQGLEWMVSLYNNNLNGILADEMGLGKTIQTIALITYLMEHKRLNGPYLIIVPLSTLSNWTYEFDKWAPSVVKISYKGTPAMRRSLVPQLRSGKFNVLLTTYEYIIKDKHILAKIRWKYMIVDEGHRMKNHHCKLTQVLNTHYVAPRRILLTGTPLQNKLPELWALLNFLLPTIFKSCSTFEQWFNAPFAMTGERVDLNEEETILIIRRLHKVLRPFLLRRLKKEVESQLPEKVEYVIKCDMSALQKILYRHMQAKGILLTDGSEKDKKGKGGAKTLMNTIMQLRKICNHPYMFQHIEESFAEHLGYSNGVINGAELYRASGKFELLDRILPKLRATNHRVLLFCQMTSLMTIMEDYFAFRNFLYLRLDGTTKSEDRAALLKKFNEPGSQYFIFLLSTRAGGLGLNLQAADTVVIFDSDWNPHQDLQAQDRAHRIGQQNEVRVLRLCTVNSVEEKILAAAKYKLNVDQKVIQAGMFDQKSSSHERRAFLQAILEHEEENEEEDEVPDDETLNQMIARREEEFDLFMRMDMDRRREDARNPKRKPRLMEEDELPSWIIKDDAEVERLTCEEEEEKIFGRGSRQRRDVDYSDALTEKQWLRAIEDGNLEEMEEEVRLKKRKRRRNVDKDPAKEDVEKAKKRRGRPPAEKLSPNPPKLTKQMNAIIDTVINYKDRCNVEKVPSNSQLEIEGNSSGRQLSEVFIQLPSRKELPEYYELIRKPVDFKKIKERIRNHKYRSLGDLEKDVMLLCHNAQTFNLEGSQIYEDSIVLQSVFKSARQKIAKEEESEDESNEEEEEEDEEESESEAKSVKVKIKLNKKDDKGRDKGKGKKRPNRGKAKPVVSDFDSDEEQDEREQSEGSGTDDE

**Q.** For `COc1nc(-c2scnc2C)c(F)cc1[C@@H](C)NC(=O)[C@@H]1C[C@@H](O)CN1C(=O)[C@@H](c1cc(OCCN2CCC(O[C@H]3C[C@H](Oc4cc(N5C6CCC5CN(c5cc(-c7ccccc7O)nnc5N)C6)ccn4)C3)CC2)no1)C(C)C` [compound 564, (2S,4R)-1-((2R)-2-(3-(2-(4-((1r,3R)-3-((4-(3-(3-amino-6-(2-hydroxyphenyl)pyridazin-4-yl)-3,8-diazabicyclo[3.2.1]octan-8-yl)pyridin-2-yl)oxy)cyclobutoxy)piperidin-1-yl)ethoxy)isoxazol-5-yl)-3-methylbutanoyl)-N-((R)-1-(5-fluoro-2-methoxy-6-(4-methylthiazol-5-yl)pyridin-3-yl)ethyl)-4-hydroxypyrrolidine-2-carboxamide], which DC50 [1] is on record?
**A.** > 0.03 µM

**Q.** What does the source list for `Cc1ncsc1-c1ccc([C@H](C)NC(=O)[C@@H]2C[C@@H](O)CN2C(=O)[C@@H](c2cc(OCC[C@H]3CC[C@H](O[C@H]4C[C@H](Oc5cc(N6C7CCC6CN(c6cc(-c8ccccc8O)nnc6N)C7)ccn5)C4)CC3)no2)C(C)C)cn1` [compound 486, (2S,4R)-1-((2R)-2-(3-(2-((1R,4R)-4-((1r,3R)-3-((4-(3-(3-amino-6-(2-hydroxyphenyl)pyridazin-4-yl)-3,8-diazabicyclo[3.2.1]octan-8-yl)pyridin-2-yl)oxy)cyclobutoxy)cyclohexyl)ethoxy)isoxazol-5-yl)-3-methylbutanoyl)-4-hydroxy-N-((S)-1-(6-(4-methylthiazol-5-yl)pyridin-3-yl)ethyl)pyrrolidine-2-carboxamide]?
**A.** Dmax [2]: > 75%; DC50 [3]: < 0.0025 µM

**Q.** With `Cc1ncsc1-c1ccc([C@H](C)NC(=O)[C@H]2C[C@H](O)CN2C(=O)C(c2cc(OCCN3CCC(O[C@H]4C[C@H](Oc5cc(N6C7CCC6CN(c6cc(-c8ccccc8O)nnc6N)C7)ccn5)C4)CC3)no2)C(C)C)cn1` (stereo partly drawn) [compound 254, (2R,4S)-1-(2-(3-(2-(4-((1r,3r)-3-((4-(3-(3-amino-6-(2-hydroxyphenyl)pyridazin-4-yl)-3,8-diazabicyclo[3.2.1]octan-8-yl)pyridin-2-yl)oxy)cyclobutoxy)piperidin-1-yl)ethoxy)isoxazol-5-yl)-3-methylbutanoyl)-4-hydroxy-N-((S)-1-(6-(4-methylthiazol-5-yl)pyridin-3-yl)ethyl)pyrrolidine-2-carboxamide] as the compound, how does the DC50 [4] read?
**A.** > 0.03 µM

**Q.** How did the DC50 [1] turn out when `COc1nc(-c2scnc2C)c(F)cc1[C@H](C)NC(=O)[C@@H]1C[C@@H](O)CN1C(=O)[C@H](c1cc(OCCN2CCC(O[C@H]3C[C@H](Oc4cc(N5C6CCC5CN(c5cc(-c7ccccc7O)nnc5N)C6)ccn4)C3)CC2)no1)C(C)C` [compound 561, (2S,4R)-1-((2S)-2-(3-(2-(4-((1r,3S)-3-((4-(3-(3-amino-6-(2-hydroxyphenyl)pyridazin-4-yl)-3,8-diazabicyclo[3.2.1]octan-8-yl)pyridin-2-yl)oxy)cyclobutoxy)piperidin-1-yl)ethoxy)isoxazol-5-yl)-3-methylbutanoyl)-N-((S)-1-(5-fluoro-2-methoxy-6-(4-methylthiazol-5-yl)pyridin-3-yl)ethyl)-4-hydroxypyrrolidine-2-carboxamide] was run?
**A.** > 0.03 µM

**Q.** Which DC50 [4] does the source give for `Cc1ncsc1-c1ccc([C@@H](CCC#N)NC(=O)[C@@H]2C[C@@H](O)CN2C(=O)[C@@H](c2cc(N3CCC(CN4CCC(O[C@H]5C[C@H](Oc6cc(N7C8CCC7CN(c7cc(-c9ccccc9O)nnc7N)C8)ccn6)C5)CC4)CC3)no2)C(C)C)cc1` [compound 673, (2S,4R)-1-((2R)-2-(3-(4-((4-((1r,3r)-3-((4-(3-(3-amino-6-(2-hydroxyphenyl)pyridazin-4-yl)-3,8-diazabicyclo[3.2.1]octan-8-yl)pyridin-2-yl)oxy)cyclobutoxy)piperidin-1-yl)methyl)piperidin-1-yl)isoxazol-5-yl)-3-methylbutanoyl)-N-((R)-3-cyano-1-(4-(4-methylthiazol-5-yl)phenyl)propyl)-4-hydroxypyrrolidine-2-carboxamide] here?
**A.** 0.01 to 0.03 µM

**Q.** What about the Dmax [5] of the same compound?
**A.** 50 to 75%

**Q.** What does the source list for `Cc1cnn(C)c1-c1ccc([C@H](C)NC(=O)[C@@H]2C[C@@H](O)CN2C(=O)C(c2cc(OCCN3CCN(CCOc4cc(N5C6CCC5CN(c5cc(-c7ccccc7O)nnc5N)C6)ccn4)CC3)no2)C(C)C)cc1` (stereo in doubt) [compound 194, (2S,4R)-1-((2R)-2-(3-(2-(4-(2-((4-(3-(3-amino-6-(2-hydroxyphenyl)pyridazin-4-yl)-3,8-diazabicyclo[3.2.1]octan-8-yl)pyridin-2-yl)oxy)ethyl)piperazin-1-yl)ethoxy)isoxazol-5-yl)-3-methylbutanoyl)-N-((S)-1-(4-(1,4-dimethyl-1H-pyrazol-5-yl)phenyl)ethyl)-4-hydroxypyrrolidine-2-carboxamide]?
**A.** DC50 [4]: < 0.0025 µM; Dmax (%) (% degraded) (BRM degradation, SW1573 cells, tested at the top concentration of between 0.3 and 10 μM): A (A > 75)

**Q.** What does the source list for `Cc1ncsc1-c1ccc([C@H](C)NC(=O)[C@@H]2C[C@@H](O)CN2C(=O)C(c2cc(N3CCC(C(C)(C)N4CCC(O[C@H]5C[C@H](Oc6cc(N7C8CCC7CN(c7cc(-c9ccccc9O)nnc7N)C8)ccn6)C5)CC4)CC3)no2)C(C)C)cc1` (stereo partly drawn) [compound 692, (2S,4R)-1-(2-(3-(4-(2-(4-((1r,3r)-3-((4-(3-(3-amino-6-(2-hydroxyphenyl)pyridazin-4-yl)-3,8-diazabicyclo[3.2.1]octan-8-yl)pyridin-2-yl)oxy)cyclobutoxy)piperidin-1-yl)propan-2-yl)piperidin-1-yl)isoxazol-5-yl)-3-methylbutanoyl)-4-hydroxy-N-((S)-1-(4-(4-methylthiazol-5-yl)phenyl)ethyl)pyrrolidine-2-carboxamide]?
**A.** DC50 [4]: < 0.0025 µM; Dmax [5]: > 75%

**Q.** Which DC50 [4] does the source give for `Cc1ncsc1-c1ccc([C@H](CO)NC(=O)[C@@H]2C[C@@H](O)CN2C(=O)[C@@H](c2cc(OCCN3CCC(O[C@H]4C[C@H](Oc5cc(N6C7CCC6CN(c6cc(-c8ccccc8O)nnc6N)C7)ccn5)C4)CC3)no2)C(C)C)cc1` [compound 199, (2S,4R)-1-((2R)-2-(3-(2-(4-((1r,3R)-3-((4-(3-(3-amino-6-(2-hydroxyphenyl)pyridazin-4-yl)-3,8-diazabicyclo[3.2.1]octan-8-yl)pyridin-2-yl)oxy)cyclobutoxy)piperidin-1-yl)ethoxy)isoxazol-5-yl)-3-methylbutanoyl)-4-hydroxy-N-((R)-2-hydroxy-1-(4-(4-methylthiazol-5-yl)phenyl)ethyl)pyrrolidine-2-carboxamide] here?
**A.** < 0.0025 µM

**Q.** What about the Dmax (BRM degradation, SW1573 cells, tested at the top concentration of between 0.3 and 10 μM, read-out: Dmax (%) (% degraded)) of the same compound?
**A.** > 75%

**Q.** With `Cc1ncsc1-c1ncc([C@H](C)NC(=O)[C@@H]2C[C@@H](O)CN2C(=O)[C@H](c2cc(OCCN3CCC(O[C@H]4C[C@H](Oc5cc(N6C7CCC6CN(c6cc(-c8ccccc8O)nnc6N)C7)ccn5)C4)CC3)no2)C(C)C)cn1` [compound 429, (2S,4R)-1-((2S)-2-(3-(2-(4-((1r,3S)-3-((4-(3-(3-amino-6-(2-hydroxyphenyl)pyridazin-4-yl)-3,8-diazabicyclo[3.2.1]octan-8-yl)pyridin-2-yl)oxy)cyclobutoxy)piperidin-1-yl)ethoxy)isoxazol-5-yl)-3-methylbutanoyl)-4-hydroxy-N-((S)-1-(2-(4-methylthiazol-5-yl)pyrimidin-5-yl)ethyl)pyrrolidine-2-carboxamide] as the compound, how does the DC50 [6] read?
**A.** > 0.03 µM

**Q.** For `Cc1ncsc1-c1ccc([C@H](C)NC(=O)[C@@H]2C[C@@H](O)CN2C(=O)C(C(C)C)n2cc(OCCN3CCN(CCOc4cc(N5C6CCC5CN(c5cc(-c7ccccc7O)nnc5N)C6)ccn4)CC3)cn2)cc1` (stereo in doubt) [compound 39, (2S,4R)-1-[(2S)-2-[4-[2-(4-[2-[(4-[3-[3-amino-6-(2-hydroxyphenyl)pyridazin-4-yl]-3,8-diazabicyclo[3.2.1]octan-8-yl]pyridin-2-yl)oxy]ethyl]piperazin-1-yl)ethoxy]-1H-pyrazol-1-yl]-3-methylbutanoyl]-4-hydroxy-N-[(1S)-1-[4-(4-methyl-1,3-thiazol-5-yl)phenyl]ethyl]pyrrolidine-2-carboxamide], which DC50 [4] is on record?
**A.** > 0.03 µM

**Q.** What about the Dmax (BRM degradation, SW1573 cells, when tested at the top concentration of between 0.3 and 10 μM, read-out: Dmax (%) (% degraded)) of the same compound?
**A.** > 75%

**Q.** How did the DC50 [6] turn out when `Cc1ncsc1-c1ccc([C@@H](NC(=O)[C@@H]2C[C@@H](O)CN2C(=O)[C@H](c2cc(OCCN3CCC(O[C@H]4C[C@H](Oc5cc(N6C7CCC6CN(c6cc(-c8ccccc8O)nnc6N)C7)ccn5)C4)CC3)no2)C(C)C)C(=O)N(C)C2CCC2)cc1` [compound 423, (2S,4R)-1-((2S)-2-(3-(2-(4-((1r,3S)-3-((4-(3-(3-amino-6-(2-hydroxyphenyl)pyridazin-4-yl)-3,8-diazabicyclo[3.2.1]octan-8-yl)pyridin-2-yl)oxy)cyclobutoxy)piperidin-1-yl)ethoxy)isoxazol-5-yl)-3-methylbutanoyl)-N-((R)-2-(cyclobutyl(methyl)amino)-1-(4-(4-methylthiazol-5-yl)phenyl)-2-oxoethyl)-4-hydroxypyrrolidine-2-carboxamide] was run?
**A.** > 0.03 µM

**Q.** How did the Dmax [2] turn out when `Cc1ncsc1-c1ccc([C@H](C)NC(=O)[C@@H]2C[C@@H](O)CN2C(=O)[C@@H](c2cc(OCCN3C[C@H]4C[C@@H](O[C@H]5C[C@H](Oc6cc(N7C8CCC7CN(c7cc(-c9ccccc9O)nnc7N)C8)ccn6)C5)C[C@H]4C3)no2)C(C)C)cc1` [compound 360, (2S,4R)-1-((2R)-2-(3-(2-((3aR,5R,6aS)-5-((1r,3R)-3-((4-(3-(3-amino-6-(2-hydroxyphenyl)pyridazin-4-yl)-3,8-diazabicyclo[3.2.1]octan-8-yl)pyridin-2-yl)oxy)cyclobutoxy)hexahydrocyclopenta[c]pyrrol-2(1H)-yl)ethoxy)isoxazol-5-yl)-3-methylbutanoyl)-4-hydroxy-N-((S)-1-(4-(4-methylthiazol-5-yl)phenyl)ethyl)pyrrolidine-2-carboxamide] was run?
**A.** > 75%

**Q.** And the DC50 [3]?
**A.** < 0.0025 µM
